Assay results as given in patent US20160038446A1, “METHOD FOR IMPEDING SKIN INFLAMMATORY RESPONSE TO AN ENERGY INJURY” (priority 2014, published 2016).

Key:
[1] = system: skin inflammatory response to an energy injury; assay: Topical application to heat-caused first or second degree burns (FIG. 1, burn cases in general); format: in vivo, human
Source text: An energy injury is a sunburn, heat burn, or other radiation energy burn including thermal heat energy burns. […] As noted by the prior art discussed above, L-lactic acid was originally intended to facilitate reversing the signs/appearance of aging in cosmetic surgery patients by loosening and subsequent exfoliation of outer layer dead skin cells using L-Lactic Acid as the active ingredient. L-Lactic Acid is the only stereoisomer configuration of lactic acid that is active in cellular metabolism. In its original application, the L-Lactic Acid formulation very effectively results in increased epidermal cell turnover and stimulation of new collagen deposition in the deeper dermal skin layer of uninjured skin. However, the prior art teaches that acid irritates and burns the skin and teaches that concentrated acid should never be applied to an injury or burn area. […] In this manner, the action of 15% or less L-Lactic Acid with pH of less than 3.0 applied topically to an acute severe second degree burn appears to safely halt and then reverse the dermal inflammatory response cascade of events. Thus, capillary swelling decreases, leaked vascular fluid returns into the capillaries and/or lymph channels, and redness disappears as a result of fewer red blood cells in the area.
The preferred and proven application of the product should occur as soon as possible after the energy injury during the inflammatory response. However, the application is effective at any time during the skin inflammatory response. This initial application, if possible, should be within one hour for ANY first or second degree burn including a deep second degree burn such as a sunburn, touching a 400 degree oven pan. radiation therapy, or laser resurfacing treatment. This topical application has a phenomenal effect on both the visible appearance and experienced physical symptoms of the burn. […] When looking at FIGS. 1 and 2 one may see that this initial application 100 time affects how much of the untreated skin inflammatory response 60 and damage that must be overcome with the faster the application 100, the better the treated effect 150. […] The patient schedule, effectiveness of the application 100, and the increased concentration resulting in an increased patient's skin irritation become an issue with shortening the intervals for reapplication.

[2] = system: skin inflammatory response to an energy injury; assay: Effectiveness of the burn treatment as a function of pH and concentration of the lactic acid
Source text: In contrast to the normally low concentrations found in skin, the preferred product formulation is based on 10% weight/weight concentration of L-Lactic Acid, with pH of 2.34 that is compared to normal skin lactate levels that are around <3 mmol/L and skin pH between 6.8-7.0 pH.

## C[C@H](O)C(=O)O [L-Lactic Acid, L-lactic acid]
[1]; FIG. 1, applied within four hours of the initial burn
  skin inflammatory response compared against the untreated norm: immediate and significant impediment to the skin inflammatory response
[1]; FIG. 1 example, applied within four hours of the initial burn
  exfoliation or blister occurrence: no apparent exfoliation or blister occurrence
[1]; any burn cases
  blister formation after treatment: no blister formation has occurred
[1]; applied 1 hour, 2 hours, 4 hours, and 6 hours after the energy injury
  applications at different times after the energy injury: successfully tested
[2]; 2.5 pH, 2.4 pH
  effectiveness for the treatment: increased effectiveness
[2]; 2.8 pH
  effectiveness for the treatment: further increasing effectiveness
[2]; 3.0 pH
  effectiveness for the treatment: increasing effectiveness compared to the 3.5 pH
[2]; 3.5 pH
  effectiveness for the treatment: increasing effectiveness over the 4.0 pH
[2]; 4.0 pH
  effectiveness for the treatment: slightly effective
[2]; above a 4.0 pH
  effectiveness for the treatment: ineffective
[2]; concentrations over 30%
  skin effect of high concentrations: incite exfoliation
